From article PMC7588595, “Small-molecule active pharmaceutical ingredients of approved cancer therapeutics inhibit human aspartate/asparagine-β-hydroxylase” (Bioorganic & Medicinal Chemistry, 2020)
Where two headings read alike, the source gives them in different places.

Target: T1, human AspH (His6-AspH315–758) (Homo sapiens, UniProt Q12797)
T1 construct: N-Terminally His6-tagged human AspH315–758 (His6-AspH315–758) was produced in Escherichia coli BL21 (DE3) cells; made in house; host or cells: Escherichia coli BL21 (DE3), pET-28a(+) vector
T1 sequence (Q12797 315-758): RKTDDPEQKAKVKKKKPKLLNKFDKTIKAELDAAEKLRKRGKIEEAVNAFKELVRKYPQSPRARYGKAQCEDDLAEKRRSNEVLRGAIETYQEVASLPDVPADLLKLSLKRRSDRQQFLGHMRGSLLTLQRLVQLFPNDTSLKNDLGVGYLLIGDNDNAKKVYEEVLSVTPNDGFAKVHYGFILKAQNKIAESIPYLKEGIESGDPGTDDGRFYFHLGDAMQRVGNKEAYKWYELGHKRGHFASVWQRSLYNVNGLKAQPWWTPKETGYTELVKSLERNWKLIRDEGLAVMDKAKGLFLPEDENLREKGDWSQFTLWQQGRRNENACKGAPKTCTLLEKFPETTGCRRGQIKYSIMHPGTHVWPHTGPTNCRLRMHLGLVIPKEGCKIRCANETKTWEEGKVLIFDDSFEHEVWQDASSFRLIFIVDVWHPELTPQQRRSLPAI
Assay: SPE-MS AspH inhibition assay (hFX-CP101-119 substrate hydroxylation)
Format: biochemical

[1] = AspH-inhibitor screening, 384-well Plate 1
[2] = AspH-inhibitor screening, 384-well Plate 1, substrate conversion
[3] = AspH-inhibitor screening, Plate 1-duplicate
[4] = AspH-inhibitor screening, Plate 1-duplicate, substrate conversion

Molecule	Plate 1 (% inhibition) [1] [%]	Plate 1 (% conversion) [2] [%]	Plate 1-duplicate (% inhibition) [3] [%]	Plate 1-duplicate (% conversion) [4] [%]	Plate 1 (% conversion) [%]	Plate 1 (% inhibition) [%]	Plate 1-duplicate (% conversion) [%]	Plate 1-duplicate (% inhibition) [%]	Plate 1 (% inhibition) (100 uM 2,4-PDCA controls, columns 23, 24, Plate 1) [%]	Plate 1-duplicate (% inhibition) (100 uM 2,4-PDCA controls, columns 23, 24, Plate 1-duplicate) [%]
CCNC(=O)c1noc(-c2cc(C(C)C)c(O)cc2O)c1-c1ccc(CN2CCOCC2)cc1 [NVP-AUY922]	-7.77	53.34	-12.32	58.15						
Cc1nc(Nc2ncc(C(=O)Nc3c(C)cccc3Cl)s2)cc(N2CCN(CCO)CC2)n1 [Dasatinib]	-20.82	59.36	-21.12	62.52						
KX2-391	2.59	48.55	1.17	51.46						
O=P1(N(CCCl)CCCl)NCCCO1 (stereo not shown) [Cyclophosphamide]					44.96	10.37	48.17	7.81		
CS(=O)(=O)OCCCCOS(C)(=O)=O [Busulfan]	14.61	43.00	8.69	47.73						
COCC1(CO)C(=O)C2CCN1CC2 (stereo not shown) [Prima-1 Met]	3.70	48.04	3.39	50.36						
CNC(=O)c1cc(Oc2ccc(NC(=O)Nc3ccc(Cl)c(C(F)(F)F)c3)c(F)c2)ccn1 [BAY 73-4506_Regorafenib]	62.82	20.74	53.45	25.53						
C[C@@H]1CCN(C(=O)CC#N)C[C@@H]1N(C)c1ncnc2[nH]ccc12 [Tasocitinib_Tofacitinib]	9.63	45.30	6.13	49.00						
C[C@@H](Oc1cc(-c2cnn(C3CCNCC3)c2)cnc1N)c1c(Cl)ccc(F)c1Cl [Crizotinib]	-6.35	52.68	-0.27	52.18						
CC(C)C[C@H](NC(=O)[C@@H](COC(C)(C)C)NC(=O)[C@H](Cc1ccc(O)cc1)NC(=O)[C@H](CO)NC(=O)[C@H](Cc1c[nH]c2ccccc12)NC(=O)[C@H](Cc1cnc[nH]1)NC(=O)[C@@H]1CCC(=O)N1)C(=O)N[C@@H](CCCNC(=N)N)C(=O)N1CCC[C@H]1C(=O)NNC(N)=O [Goserelin acetate]	-21.27	59.57	-15.30	59.63						
C[C@]12CC[C@@H]3c4ccc(O)cc4C[C@@H](CCCCCCCCC[S+]([O-])CCCC(F)(F)C(F)(F)F)[C@H]3[C@@H]1CC[C@@H]2O (stereo partly shown) [Fulvestrant]	40.68	30.96	22.43	40.92						
CC(=O)c1c(C)c2cnc(Nc3ccc(N4CCNCC4)cn3)nc2n(C2CCCC2)c1=O [PD-0332991]	1.12	49.23	-1.13	52.60						
Cn1c(=O)n(-c2ccc(C(C)(C)C#N)cc2)c2c3cc(-c4cnc5ccccc5c4)ccc3ncc21 [NVP-BEZ235_Dactolisib]	5.14	47.38	3.83	50.14						
O=C(O)c1ccnc(C(=O)O)c1 [pyridine-2,4-dicarboxylic acid]									101.14	99.94
CC1(C)CCC(c2ccc(Cl)cc2)=C(CN2CCN(c3ccc(C(=O)NS(=O)(=O)c4ccc(N[C@H](CCN5CCOCC5)CSc5ccccc5)c(S(=O)(=O)C(F)(F)F)c4)cc3)CC2)C1 [ABT-263 (Navitoclax)]	90.19	8.10	90.05	7.38						
